Measured values from patent US6815448B2, “Azaheterocyclylmethyl derivatives of 7,8-dihydro-1,6,9-trioxa-3-aza-cyclopenta[a]naphthalene as 5-HT1A antagonists” (Wyeth, priority 2001, dated 2004).
Structures can show the parent of a compound that is named as a salt. Where two headings read alike, the source gives them in different places.

Key:
human 5-HT1A receptors = target: T1, human 5-HT1A receptors (Homo sapiens, UniProt P08908); assay: [3H] 8-OH-DPAT displacement from 5-HT1A receptor; type: binding; settings: CHO cells stably transfected with human 5-HT1A receptors, read-out: 5-HT1A Receptor Affinity KI
T1 construct: expressed in transfected cells; host or cells: CHO cells
T1 sequence (P08908 1-422): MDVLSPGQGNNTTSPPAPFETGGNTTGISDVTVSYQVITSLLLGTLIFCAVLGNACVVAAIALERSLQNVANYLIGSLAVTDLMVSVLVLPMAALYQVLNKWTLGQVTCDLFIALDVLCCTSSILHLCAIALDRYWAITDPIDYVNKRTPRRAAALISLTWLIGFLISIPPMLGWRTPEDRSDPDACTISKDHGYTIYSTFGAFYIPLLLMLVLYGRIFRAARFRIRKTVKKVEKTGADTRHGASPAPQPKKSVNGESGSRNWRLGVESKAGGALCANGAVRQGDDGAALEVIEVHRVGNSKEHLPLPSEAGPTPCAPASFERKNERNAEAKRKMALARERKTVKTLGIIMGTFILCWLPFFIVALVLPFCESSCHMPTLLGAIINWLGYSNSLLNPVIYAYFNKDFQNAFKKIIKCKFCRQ
Text: High affinity for the serotonin 5-HT1A receptor was established by testing the claimed compound's ability to displace [^3H] 8-OH-DPAT (dipropylaminotetralin) from the 5-HT1A serotonin receptor following a modification of the procedure of Hall et al. J. Neurochem. 44, 1685 (1985) which utilizes CHO cells stably transfected with human 5-HT1A receptors.

[1] = target: T2, cloned human 5-HT1A receptors (Homo sapiens, UniProt P08908); assay: 35S-GTPγS binding assay, reversal of the standard agonist 8-OH-DPAT; type: biochemical; settings: for 5-HT1A Function Imax (maximum inhibitory effect): value in parentheses
T2 construct: expressed in transfected cells
T2 sequence (P08908 1-422): T1 sequence (P08908 1-422)
Method: Antagonist activity at 5-HT1A receptors was established by using a ^35S-GTPγS binding assay similar to that used by Lazareno and Birdsall (Br. J. Pharmacol. 109: 1120, 1993), in which the test compound's ability to affect the binding of ^35S-GTPγS to membranes containing cloned human 5-HT1A receptors was determined. Agonists produce an increase in binding whereas antagonists produce no increase but rather reverse the effects of the standard agonist 8-OH-DPAT. The test compound's maximum inhibitory effect is represented as the Imax, while its potency is defined by the IC50.

[2] = 35S-GTPγS binding, membranes with cloned human 5-HT1A receptors, antagonist potency, read-out: 5-HT1A Function IC50

Row | SMILES | Ki (human 5-HT1A receptors) [nM] | melting point [°C] | IC50 [1, 2] [nM] | 5-HT1A Function Imax (maximum inhibitory effect) ([1]; 35S-GTPγS binding) | IC50 [1] [nM]
1 | Cc1nc2ccc3c(c2o1)OC(CN1CCC(C(=O)c2ccc(F)cc2)CC1)CO3 (centres unmarked) [Example 4, (4-Fluorophenyl) (1-[2-methyl-7,8-dihydro-1,6,9-trioxa-3-aza-cyclopenta[a]naphthalen-8-ylmethyl]-4-piperidinyl)methanone] | 202 |  |  |  | 
2 | Cc1nc2ccc3c(c2o1)O[C@@H](CN1CC=C(c2cccc(C(F)(F)F)c2)CC1)CO3 (as salt: fumarate) [Example 5] |  | 170 to 173 |  |  | 
3 | Cc1nc2ccc3c(c2o1)O[C@@H](CN1CC=C(c2cccc(C(F)(F)F)c2)CC1)CO3 [Example 5] | 39.4 |  | 798 | 97.0 | 
4 | Cc1nc2ccc3c(c2o1)OC(CN1CCC2(CC1)C(=O)NCN2c1ccccc1)CO3 (centres unmarked) (as salt: fumarate) [Example 1, 8-(2-Methyl-7,8-dihydro-1,6,9-trioxa-3-aza-cyclopenta[a]naphthalen-8-ylmethyl)-1-phenyl-1,3,8triazaspiro[4.5]decan-4-one] |  | 240 |  |  | 
5 | Cc1nc2ccc3c(c2o1)OC(CN1CCC(C(=O)c2ccc(F)cc2)CC1)CO3 (centres unmarked) (as salt: fumarate) [Example 4, (4-Fluorophenyl) (1-[2-methyl-7,8-dihydro-1,6,9-trioxa-3-aza-cyclopenta[a]naphthalen-8-ylmethyl]-4-piperidinyl)methanone] |  | 229 to 230 |  |  | 
6 | Cc1nc2ccc3c(c2o1)OC(CN1CCC2(CC1)C(=O)NCN2c1ccccc1)CO3 (centres unmarked) [Example 1, 8-(2-Methyl-7,8-dihydro-1,6,9-trioxa-3-aza-cyclopenta[a]naphthalen-8-ylmethyl)-1-phenyl-1,3,8triazaspiro[4.5]decan-4-one] | 0.93 |  | 1050 | 60.0 | 
7 | Cc1nc2ccc3c(c2o1)OC(CN1CCCCC1)CO3 (centres unmarked) (as salt: fumarate) [Example 6, 2-Methyl-8-(piperidin-1-ylmethyl)-7,8-dihydro-1,6,9-trioxa-3-aza-cyclopenta[a]naphthalene] |  | 109 to 112 |  |  | 
8 | Cc1nc2ccc3c(c2o1)OC(CN1CCC(n2c(=O)[nH]c4ccccc42)CC1)CO3 (centres unmarked) [Example 2, 1-[1-(2-Methyl-7,8-dihydro-1,6,9-trioxa-3-aza-cyclopenta[a]naphthalen-8-ylmethyl)-piperidin-4-yl]-1,3-dihydro-2H-benzimidazol-2-one] | 1 | 218 to 220 |  | 42.0 | 2.7
9 | Cc1nc2ccc3c(c2o1)OC(CN1CCCCC1)CO3 (centres unmarked) [Example 6, 2-Methyl-8-(piperidin-1-ylmethyl)-7,8-dihydro-1,6,9-trioxa-3-aza-cyclopenta[a]naphthalene] | 173 |  |  |  | 
10 | Cc1nc2ccc3c(c2o1)OC(CN1CCC(O)(c2cccc(C(F)(F)F)c2)CC1)CO3 (centres unmarked) [Example 3, 1-(2-Methyl-7,8-dihydro-1,6,9-trioxa-3-aza-cyclopenta[a]naphthalen-8-ylmethyl)-4-[3-(trifluoromethyl)phenyl]-4-piperidinol] | 6.52 | 148 to 151 |  | 47.0 (47.0) | 47
